From patent US20160024083A1, “COMPOUNDS AND METHODS FOR TREATING CANCERS” (HEALTH RESEARCH, INC., priority 2013, published 2016)
pIC50: −log10 of the molar value. One block for each molecule: values may come before it.

What was measured:
[1] = Aqueous solubility (pH 7.4); type: physicochemical
[2] = Metabolic stability in the presence of mouse liver microsomes; type: in vitro ADME; settings: for metabolic stability, % left: after 30 minute incubation with mouse liver microsome
[3] = Plasma concentration (PK) after intravenous and intraperitoneal injections; type: in vivo; settings: for plasma concentration time course: after IV and IP injections; for plasma concentration time course / bioavailability through IP injection: 50-100 mg/kg; for bioavailability through IP injection: plasma concentrations similar or even higher after IP than IV
[4] = Tissue drug concentrations (tumor, liver, plasma) in treated CWR22R tumor-bearing mice; type: in vivo
Description: (§1) We tested these compounds in an in vivo efficacy experiment using model of CRPC in SCID mice, CWR22R. Two compounds, PLA1079 and 1125, which were synthesized in the amount of 500 mg were tested in full scale experiment with either 5 IV daily injections or 10 IP daily injections. After 5 IP or IV injections intra-tumor concentration of the compounds were measured in few mice from this experiment.
Two other compounds, PLA1148 and 1098 (PK testing in FIGS. 8 and 9) were tested in a small scale efficacy experiment. Upon PK testing of the compound PLA1148 one mouse was injected twice with 10 min interval. However the concentration of the drug in plasma of this mouse was not twice, but >4 times higher than in mice injected once. […] It was decided to utilize this observation in an attempt to get higher plasma and tumor concentration of both compounds. Therefore in the pilot efficacy experiment in the same model of CWR22R cells mice were treated with 2 IP injections with 10 minute interval. Treatment with PLA1098 was carried out for two days. […] However this is so far the highest concentration found in tumor. […]
(§2) LC50 data of in vitro 72 hours cytotoxicity assay are included in this table for comparison.

CWR22R tumors = test: In vivo efficacy, subcutaneous xenografts of CWR22R cells in SCID mice
Description: as §1
(§3) Two other compounds, PLA1148 and 1098 (PK testing in FIGS. 8 and 9) were tested in a small scale efficacy experiment. Upon PK testing of the compound PLA1148 one mouse was injected twice with 10 min interval. However the concentration of the drug in plasma of this mouse was not twice, but >4 times higher than in mice injected once. […] It was decided to utilize this observation in an attempt to get higher plasma and tumor concentration of both compounds. Therefore in the pilot efficacy experiment in the same model of CWR22R cells mice were treated with 2 IP injections with 10 minute interval. Treatment with PLA1098 was carried out for two days. […] However this is so far the highest concentration found in tumor.
Pilot efficacy experiments were run for compounds: PLA1163, PLA1148 using the same model of subcutaneous xenografts of CWR22R cells in SCID mice (FIGS. 18 and 19).

[5] = Toxicity / side effects in treated mice; type: in vivo
Description: as §3
This compound may be also potentially promising.

[6] = Solubility for in vivo administration; type: physicochemical; settings: tested for PK using IP injection of the drug in suspension
CWR22R = test: cells; type: cell-based; settings: for pIC50: Homo sapiens, 22Rv1, CWR22R, read-out: IC50 for inhibition of growth
Description: FIG. 21. Toxicity of PLA1055 to CWR22R cells in vitro depending on time of incubation. PLA1055 was added to CWR22R in full range of concentrations for the periods of time shown on the right. After that drug containing media were changed for drug free and survival of cells was detected at 72 hours after start of treatment using Alamar Blue assay (Promega).
(§4) This example provides a table (below) of the compounds of the present disclosure and their activity towards four different cell lines (i.e., CWR22R, HeLa, PC3, and MDA-MB-231). The IC50 for inhibition of growth is divided into 4 categories: A<1 μM, B 1-5 μM, C 5-20 μM, D>20 μM.
(§5) All compounds were tested for toxicity using 4 cells lines, target cells—CWR22R and non-target cells, Hela, PC3 and MDA-MB-231 (FIGS. 1A-F).
as §2
An in vitro experiment was run to detect the concentration of PLA1055 needed to kill all tumor cells in vitro (LC90) during different periods of time (30 minutes-72 hours, FIG. 21)).

Mdm2 = Mdm2 accumulation, Western Blot; type: cell-based; settings: MCF7 cells with functionally inactive p53 (R175H, GSE56)
Description: Results of Western Blot analysis: CWR22r cells were treated with 1 uM c52 for indicated time intervals.
Also tested was the hypothesis that degradation of androgen receptor in prostate and breast cancer cells may be due to p53 induced accumulation of mdm2, which is also ubiquitin ligase for androgen receptor (FIG. 15). p53 was inactivated in several cell lines using different approaches what led to the blockade of mdm2 accumulation after c52 treatment. However androgen receptor was still degraded in c52 treated cells even in the absence of p53 activation and mdm2 accumulation (FIG. 16).

[7] = tested on: presumable target protein; test: DARTS (Drug Affinity Responsive Target Stability) assay in CWR22r lysates; type: binding; settings: protein lysates from CWR22r cells
Description: FIG. 24. DARTS (Drug Affinity Responsive Target Stability) assay was performed using c52 and PLA1118. According to this assay these compounds are capable of protecting presumable target protein from protease degradation. Protein lysates from sensitive CWR22r cells were incubated with or without the drug and subsequently digested with the indicated concentration of pronase. A. c52 was used (lane T-treated, M-marker) with indicated concentrations of pronase; ability of c52 to protect its target from protease cleavage was judged based on presence of protein band in the treated lane vs the untreated (UT) control.
Target identification through affinity chromatography and sensitivity to proteolysis methods was undertaken. […] These bands were excised from gel and sent for protein sequencing. (FIG. 24).

Hela = test: Inhibition of growth / toxicity in non-target Hela cells; type: cell-based; settings: Homo sapiens, HeLa
Description: as §4, §5

PC3 = test: Inhibition of growth / toxicity in non-target PC3 cells; type: cell-based; settings: Homo sapiens, PC-3
Description: as §4, §5

MDA-MB-231 = test: Inhibition of growth / toxicity in non-target MDA-MB-231 cells; type: cell-based; settings: Homo sapiens
Description: as §4, §5

[8] = classification (Stable/Moderate/Unstable), lines whose second value is in %
[9] = in %, table title: Metabolic stability and solubility, % left after 30 minute incubation with mouse liver microsome
[10] = one mouse, 24 hours after injections
[11] = single IV administration of 50 mg/kg (FIG. 20)

Aqueous Solubility Classification [1]: Low | Aqueous Solubility Classification ([1]; pH 7.4): Low
Structure (SMILES): O=c1[nH]ccc2c1ccc1c2c2ncccc2n1CCCF [PLA1181]

Structure (SMILES): N#Cc1cccc2c1c1c3cc[nH]c(=O)c3ccc1n2CCCF [PLA1195]
Aqueous Solubility (pH 7.4) ([1]; pH 7.4): 2.7 μM | Aqueous Solubility Classification ([1]; pH 7.4): Low | Metabolic stability, % left after 30 min with mouse liver microsomes [2, 8]: Moderate | Metabolic stability, % left after 30 min with mouse liver microsomes [2, 9]: 63%

Structure (SMILES): O=C1NCCc2c1ccc1c2c2ncccc2n1CCCF [PLA1148]
plasma concentration time course [3]: fast reduction of concentration during the first hour | bioavailability through IP injection [3]: very high | plasma concentration of mouse injected twice versus mice injected once ([3]; two injections with 10 min interval): > 4 times | Liver ([4]; 50 mg/kg, IP): 50 nM | Tumor concentration ([4]; 50 mg/kg, IP): 0 to 90 nM | Tumor concentration ([4]; 48 hours after treatment): 84 nM | liver concentration ([4]; 48 hours after treatment): 49 nM | plasma concentration ([4]; 48 hours after treatment, compared with 24 hours (8.5 nM)): The same plasma concentration | drug in liver [4, 10]: no drug detected | drug in tumor [4, 10]: no drug detected | plasma concentration [4, 10]: 8.5 nM | tumors of mice that died on the 5th day (CWR22R tumors; CWR22R, two mice): almost undetectable tumors | acute toxicity ([5]; 2 IP injections with 10 minute interval, one day, symptoms suggested acute liver failure): acute toxicity developed quickly after injection | mortality ([5]; after one day of injections): 2 mice died next day and 3 other during next 5 days

Structure (SMILES): O=c1c2ccc3c(c2ccn1CCO)c1ccccc1n3CCCF [PLA1192]
Aqueous Solubility (pH 7.4) ([1]; pH 7.4): 15 μM | Aqueous Solubility Classification ([1]; pH 7.4): Moderate | Aqueous Solubility Classification [2, 8]: Moderate | Metabolic stability, % left after 30 min with mouse liver microsomes [2, 9]: 27%

Structure (SMILES): O=c1[nH]c2ccc3c(c4ccccc4n3CCCF)c2o1 [PLA1190]
Aqueous Solubility (pH 7.4) ([1]; pH 7.4): 3.5 μM | Aqueous Solubility Classification ([1]; pH 7.4): Low | metabolic stability, % left [2]: 70% | Metabolic stability, % left after 30 min with mouse liver microsomes [2, 8]: Stable | Metabolic stability, % left after 30 min with mouse liver microsomes [2, 9]: 77%

solubility [6]: poorly soluble
Structure (SMILES): CCCn1c2ccccc2c2c3cc[nH]c(=O)c3ccc21 [PLA1099]

Structure (SMILES): CN1Cc2c(ccc3c2c2ccccc2n3CCC(F)F)C1=O [PLA1194]
Aqueous Solubility (pH 7.4) ([1]; pH 7.4): 18 μM | Aqueous Solubility Classification ([1]; pH 7.4): Moderate | Aqueous Solubility Classification [2, 8]: Moderate | Metabolic stability, % left after 30 min with mouse liver microsomes [2, 9]: 28%

Structure (SMILES): O=C1CCc2c1ccc1c2c2cc(Br)ccc2n1CCCF [PLA1199]
Aqueous Solubility (pH 7.4) ([1]; pH 7.4): 2.3 μM | Aqueous Solubility Classification ([1]; pH 7.4): Low | Metabolic stability, % left after 30 min with mouse liver microsomes [2, 8]: Moderate | Metabolic stability, % left after 30 min with mouse liver microsomes [2, 9]: 42%

Structure (SMILES): O=c1c2ccc3c(c2ccn1CCN1CCCC1)c1ccccc1n3CCCF [PLA1193]
Aqueous Solubility (pH 7.4) ([1]; pH 7.4): 140 μM | Aqueous Solubility Classification ([1]; pH 7.4): High | Metabolic stability, % left after 30 min with mouse liver microsomes [2, 8]: Unstable | Metabolic stability, % left after 30 min with mouse liver microsomes [2, 9]: 3%

Structure (SMILES): CC(=O)c1ccc2c(c1)c1c(C(N)=O)cccc1n2CCCF [PLA1191]
Aqueous Solubility (pH 7.4) ([1]; pH 7.4): 130 μM | Aqueous Solubility Classification ([1]; pH 7.4): High | Metabolic stability, % left after 30 min with mouse liver microsomes [2, 8]: Moderate | Metabolic stability, % left after 30 min with mouse liver microsomes [2, 9]: 30%

Structure (SMILES): FCCCn1c2ccccc2c2cc(-c3nnco3)ccc21 [PLA1125]
CC50 (CWR22R): 100 nM | plasma concentration time course [3]: fast reduction of concentration during the first hour | bioavailability through IP injection [3]: very high | Tumor concentration ([4]; 100 mg/kg, IP/IV): 7 to 10 nM | intra-tumor concentration relative to LC50% in vitro ([4]; mouse, in vivo): significantly below LC50% | in vivo efficacy (CWR22R tumors; CWR22R in SCID mice, 5 IV daily injections or 10 IP daily injections): absence of in vivo efficacy

Structure (SMILES): O=C1NCCOc2c1ccc1c2c2ccccc2n1CCCF [PLA1163]
CC50 (CWR22R): 200 nM | Liver ([4]; 40 mg/kg, IP): 307 nM | Tumor concentration ([4]; 40 mg/kg, IP): 4 to 10 nM | solubility [6]: poorly soluble

Structure (SMILES): CC(=O)c1ccc2c(c1)c1cc(C(C)=O)ccc1n2CCNC(C)C [CBL 137, reference compound]
Mdm2 level (Mdm2): Mdm2 is no longer overexpressed

protection of target protein from pronase degradation [7]: faintly
Structure (SMILES): CCCn1c2ccccc2c2cc(S(C)(=O)=O)ccc21 [PLA1118]

Aqueous Solubility Classification [1]: Moderate | Aqueous Solubility Classification ([1]; pH 7.4): Low
Structure (SMILES): O=C1COc2c(ccc3c2c2ncccc2n3CCCF)N1 [PLA1183]

Structure (SMILES): NC(=O)c1cccc2c1c1c3cc[nH]c(=O)c3ccc1n2CCCF [PLA1196]
Aqueous Solubility (pH 7.4) ([1]; pH 7.4): 26 μM | Aqueous Solubility Classification ([1]; pH 7.4): Moderate | Aqueous Solubility Classification [2, 8]: Moderate | Metabolic stability, % left after 30 min with mouse liver microsomes [2, 9]: 65%

Structure (SMILES): O=C1CCc2c1ccc1c2c2c(F)cccc2n1CCCF [PLA1197]
Aqueous Solubility (pH 7.4) ([1]; pH 7.4): 4.0 μM | Aqueous Solubility Classification ([1]; pH 7.4): Low | metabolic stability, % left [2]: 77% | Metabolic stability, % left after 30 min with mouse liver microsomes [2, 8]: Stable | Metabolic stability, % left after 30 min with mouse liver microsomes [2, 9]: 73%

Structure (SMILES): CC(=O)c1ccc2c(c1)c1ccccc1n2CCCF [PLA1055]
CC50 (CWR22R): 40 nM | LC90 (CWR22R; CWR22R, incubation 4-8 hours, survival at 72 hours, Alamar Blue assay): 2500 nM | plasma concentration at 8 hours [3, 11]: below 1 uM | time up to which compound was detected in plasma [3, 11]: up to 24 hours

solubility [6]: poorly soluble
Structure (SMILES): O=c1[nH]ccc2c1ccc1c2c2ccccc2n1CCCF [PLA1121]

Structure (SMILES): CC(=O)c1ccc2c(c1)c1c3c(ccc1n2CCCF)C(=O)CC3 [PLA1198]
Aqueous Solubility (pH 7.4) ([1]; pH 7.4): 2.5 μM | Aqueous Solubility Classification ([1]; pH 7.4): Low | Metabolic stability, % left after 30 min with mouse liver microsomes [2, 8]: Moderate | Metabolic stability, % left after 30 min with mouse liver microsomes [2, 9]: 46%

Structure (SMILES): CCCn1c2ccccc2c2cc(C(C)=O)cnc21 [Compound 5-10]
pIC50 (CWR22R): > 6.00 | pIC50 (Hela): < 4.70 | pIC50 (PC3): < 4.70 | pIC50 (MDA-MB-231): < 4.70

Structure (SMILES): CCCn1c2ccccc2c2cc(-c3cocn3)ccc21 [Compound 12-1, 3-Oxazol-4-yl-9-propyl-9H-carbazole]
pIC50 (CWR22R): < 4.70 | pIC50 (Hela): < 4.70 | pIC50 (PC3): < 4.70 | pIC50 (MDA-MB-231): < 4.70
